# From ChEMBL document CHEMBL5120927, “LEGO-Lipophosphonoxins: A Novel Approach in Designing Membrane Targeting Antimicrobials” (J Med Chem, 2022)
# Active and inactive are the calls of the source. No cut-off for these calls is given here.
# Legend:
# Enterococcus faecalis = assay: Antibacterial activity against Enterococcus faecalis ATCC 29212 = CCM 4224 assessed as inhibition of bacterial growth incubated for 24 hrs by microdilution assay; format: functional
# Staphylococcus aureus [1] = assay: Antibacterial activity against Staphylococcus aureus ATCC 29213 = CCM 4223 assessed as inhibition of bacterial growth incubated for 24 hrs in presence of BSA by microdilution assay; format: functional
# Escherichia coli [2] = assay: Antibacterial activity against Escherichia coli ATCC 25922 = CCM 3954 assessed as inhibition of bacterial growth incubated for 24 hrs by microdilution assay; format: functional
# Pseudomonas aeruginosa [3] = assay: Antibacterial activity against Pseudomonas aeruginosa ATCC 27853 = CCM 3955 assessed as inhibition of bacterial growth incubated for 24 hrs by microdilution assay; format: functional
# [4] = Hemolytic activity in human RBC assessed as haemoglobin release measured after 3 hr; format: toxicity, cell-based, Erythrocyte; details: red blood cells (erythrocytes)
# [5] = Gradient chromatographic hydrophobicity index of the compound at pH 3.7 by HPLC analysis; format: ADME
# [6] = tested on: Staphylococcus epidermidis; assay: Antibacterial activity against Staphylococcus epidermidis CCM 7221 assessed as inhibition of bacterial growth incubated for 24 hrs by microdilution assay; format: functional
# Staphylococcus aureus [7] = assay: Antibacterial activity against methicillin resistant Staphylococcus aureus 4591/A assessed as reduction in microbial growth incubated for 24 hrs by microdilution assay; format: functional
# Escherichia coli [8] = assay: Antibacterial activity against multidrug-resistant Escherichia coli CE5556 expressing CTX-M-15 assessed as reduction in microbial growth incubated for 24 hrs by microdilution assay; format: functional
# Pseudomonas aeruginosa [9] = assay: Antibacterial activity against multidrug-resistant Pseudomonas aeruginosa assessed as reduction in microbial growth incubated for 24 hrs by microdilution assay; format: functional
# Staphylococcus aureus [10] = assay: Antibacterial activity against wild type Staphylococcus aureus 4557/A assessed as reduction in microbial growth incubated for 24 hrs by microdilution assay; format: functional
# Staphylococcus aureus [11] = assay: Antibacterial activity against wild type Staphylococcus aureus 4904/C assessed as reduction in microbial growth incubated for 24 hrs by microdilution assay; format: functional
# Staphylococcus aureus [12] = assay: Antibacterial activity against wild type Staphylococcus aureus 4883/C assessed as reduction in microbial growth incubated for 24 hrs by microdilution assay; format: functional
# Staphylococcus aureus [13] = assay: Antibacterial activity against […] Staphylococcus aureus 4460/A assessed as reduction in microbial growth incubated for 24 hrs by microdilution assay; format: functional
# Staphylococcus aureus [14] = assay: Antibacterial activity against wild type Staphylococcus aureus 4482/A assessed as reduction in microbial growth incubated for 24 hrs by microdilution assay; format: functional
# Staphylococcus aureus [15] = assay: Antibacterial activity against wild type Staphylococcus aureus 4566/A assessed as reduction in microbial growth incubated for 24 hrs by microdilution assay; format: functional
# Staphylococcus aureus [16] = assay: Antibacterial activity against wild type Staphylococcus aureus 4504/A assessed as reduction in microbial growth incubated for 24 hrs by microdilution assay; format: functional
# Staphylococcus aureus [17] = assay: Antibacterial activity against wild type Staphylococcus aureus 4740/B assessed as reduction in microbial growth incubated for 24 hrs by microdilution assay; format: functional
# Staphylococcus aureus [18] = assay: Antibacterial activity against wild type Staphylococcus aureus 4717/B assessed as reduction in microbial growth incubated for 24 hrs by microdilution assay; format: functional
# Staphylococcus aureus [19] = assay: Antibacterial activity against wild type Staphylococcus aureus 4738/B assessed as reduction in microbial growth incubated for 24 hrs by microdilution assay; format: functional
# Staphylococcus aureus [20] = assay: Antibacterial activity against […] Staphylococcus aureus 4461/A assessed as reduction in microbial growth incubated for 24 hrs by microdilution assay; format: functional
# Staphylococcus aureus [21] = assay: Antibacterial activity against wild type Staphylococcus aureus 4679/B assessed as reduction in microbial growth incubated for 24 hrs by microdilution assay; format: functional
# Staphylococcus aureus [22] = assay: Antibacterial activity against wild type Staphylococcus aureus 4515/A assessed as reduction in microbial growth incubated for 24 hrs by microdilution assay; format: functional
# Staphylococcus aureus [23] = assay: Antibacterial activity against wild type Staphylococcus aureus 4788/B assessed as reduction in microbial growth incubated for 24 hrs by microdilution assay; format: functional
# Staphylococcus aureus [24] = assay: Antibacterial activity against wild type Staphylococcus aureus 78/CF assessed as reduction in microbial growth incubated for 24 hrs by microdilution assay; format: functional
# Staphylococcus aureus [25] = assay: Antibacterial activity against wild type Staphylococcus aureus 77/CF assessed as reduction in microbial growth incubated for 24 hrs by microdilution assay; format: functional
# Staphylococcus aureus [26] = assay: Antibacterial activity against wild type Staphylococcus aureus 4561/A assessed as reduction in microbial growth incubated for 24 hrs by microdilution assay; format: functional
# Staphylococcus aureus [27] = assay: Antibacterial activity against wild type Staphylococcus aureus 4968/C assessed as reduction in microbial growth incubated for 24 hrs by microdilution assay; format: functional
# Escherichia coli [28] = assay: Bactericidal activity against Escherichia coli CCM 3954 assessed as reduction in viable cell count measured after 24 hrs by Time kill assay; format: functional, organism-based; details: dose 2-8 mg/L, DDE = dose-dependent effect
# Staphylococcus aureus [29] = assay: Bactericidal activity against Staphylococcus aureus CCM 4223 assessed as reduction in viable cell count measured after 24 hrs by Time kill assay; format: functional, organism-based; details: DDE = dose-dependent effect
# Pseudomonas aeruginosa [30] = assay: Antibacterial activity against Pseudomonas aeruginosa CCM 3955 persisters assessed as reduction in bacterial cell count at 1 to 10 times MIC incubated for 3 hrs by cell counting method; format: functional, organism-based
# Escherichia coli [31] = assay: Antibacterial activity against Escherichia coli CCM 3954 persisters assessed as reduction in bacterial cell count at 1 to 10 times MICincubated for 3 hrs by cell counting method; format: functional, organism-based
# Staphylococcus aureus [32] = assay: Antibacterial activity against Staphylococcus aureus CCM 4223 persisters assessed as reduction in bacterial cell count at 1 to 10 times MIC incubated for 3 hrs by cell counting method; format: functional, organism-based
# Pseudomonas aeruginosa [33] = assay: Antibacterial activity against Pseudomonas aeruginosa assessed as reduction in microbial growth measured after 20 cycles by microdilution assay; format: functional; details: time 24 hrs
# Cell membrane [34] = assay: Induction of cell envelope damage in Staphylococcus aureus assessed as loss of cell integrity at 8 mg/L measured after 8 hrs by scanning electron microscope analysis; format: subcellular
# Cell membrane [35] = assay: Induction of cell envelope damage in Staphylococcus aureus assessed as membranous nanotubes extrude from dying/dead cells at 8 mg/L measured after 8 hrs by scanning electron microscope analysis
# Cell membrane [36] = assay: Induction of membrane permeabilization in Escherichia coli CCM 3954 assessed as propidium iodide influx measured after 80 mins by spectrofluorometer method; details: dose 2.5-5 mg/L, DDE = dose-dependent effect
# Cell membrane [37] = assay: Induction of plasma membrane depolarization in Staphylococcus aureus assessed as formation of fluctuating unstable pores at 2.5 mg/L; format: cell membranes
# Lipid bilayer = assay: Induction of membrane disruption of bacterial inner membrane mimic DOPE/DOPG (2:1) large unilamellar vesicles assessed as carboxyfluorescein leakage at 2.5 mg/L measured after 90 mins by spectrofluorometer analysis
# [38] = Cytotoxicity against human HepG2 cells assessed as reduction in cell viability; format: toxicity, cell-based
# [39] = Toxicity in human epidermis model assessed as skin irritation incubated for 42 hrs; format: tissue-based
# [40] = Toxicity in human cornea epidermis model assessed as eye irritation incubated for 42 hrs; format: tissue-based
# [41] = Toxicity in human cornea epidermis model assessed as tissue viability pretreated for 1 hr and measured after 42 hrs by MTT assay relative to control; format: tissue-based; details: read-out: Activity
# Escherichia coli [42] = assay: Antibacterial activity against Escherichia coli CCM 3954 assessed as time to reduce microbial population at 2 mg/L measured by time-kill assay; format: functional
# Staphylococcus aureus [43] = assay: microbe, parasite or virus in culture; details: 5017/C, 24 h
# Description: Antibacterial activity against wild type Staphylococcus aureus 5017/C assessed as reduction in microbial growth incubated for 24 hrs by microdilution assay
compound,measurement,setting,value
CCCCCCCCOP(=O)(CCN(CCCN)CCCN)OCCCCCCOP(=O)(CCN(CCCN)CCCN)OCCCCCCCC.Cl.Cl.Cl.Cl.Cl.Cl (stereo not given),MIC,Enterococcus faecalis,1 µg/mL
same,MIC,Staphylococcus aureus [1],1 µg/mL
same,MIC,Escherichia coli [2],0.5 µg/mL
same,MIC,Pseudomonas aeruginosa [3],2 µg/mL
same,HC50 at 3 h,[4],162 µg/mL
same,CHI,[5],36.9
same,MIC,[6],0.5 µg/mL
same,MIC,Staphylococcus aureus [7],1 µg/mL
same,MIC,Escherichia coli [8],1 µg/mL
same,MIC,Pseudomonas aeruginosa [9],2 µg/mL
same,MIC,Staphylococcus aureus [10],0.5 µg/mL
same,MIC,Staphylococcus aureus [11],0.5 µg/mL
same,MIC,Staphylococcus aureus [12],1 µg/mL
same,MIC,Staphylococcus aureus [13],1 µg/mL
same,MIC,Staphylococcus aureus [14],0.5 µg/mL
same,MIC,Staphylococcus aureus [15],0.5 µg/mL
same,MIC,Staphylococcus aureus [16],0.5 µg/mL
same,MIC,Staphylococcus aureus [17],0.5 µg/mL
same,MIC,Staphylococcus aureus [18],0.5 µg/mL
same,MIC,Staphylococcus aureus [19],0.5 µg/mL
same,MIC,Staphylococcus aureus [20],0.5 µg/mL
same,MIC,Staphylococcus aureus [21],0.5 µg/mL
same,MIC,Staphylococcus aureus [22],1 µg/mL
same,MIC,Staphylococcus aureus [23],0.5 µg/mL
same,MIC,Staphylococcus aureus [24],1 µg/mL
same,MIC,Staphylococcus aureus [25],0.5 µg/mL
same,MIC,Staphylococcus aureus [26],0.5 µg/mL
same,MIC,Staphylococcus aureus [27],1 µg/mL
same,Activity,Escherichia coli [28],Dde
same,Activity,Staphylococcus aureus [29],Dde
same,Activity,Pseudomonas aeruginosa [30],Active
same,Activity,Escherichia coli [31],Active
same,Activity,Staphylococcus aureus [32],Active
same,fold change (FC),Pseudomonas aeruginosa [33],32
same,Activity,Cell membrane [34],Active
same,Activity,Cell membrane [35],Active
same,Activity,Cell membrane [36],Dde
same,Activity,Cell membrane [37],Active
same,Activity,Lipid bilayer,Active
same,CC50,[38],33.1 µM
same,Activity,[39],Non-Toxic
same,Activity,[40],Non-Toxic
same,viability at 42 h,[41],> 60%
same,Time,Escherichia coli [42],12 h
same,MIC,Staphylococcus aureus [43],0.5 µg/mL
